Source: patent US9493455B2, “Azaindole derivatives as inhibitors of protein kinases” (ORIBASE PHARMA, priority 2012, dated 2016)

Experiments:
[1] = target: T1, ABL (Homo sapiens, UniProt P00519); assay: In vitro kinase assay (Z′-LYTE); format: biochemical; details: read-out: % of inhibition of the kinase compared to the control
T1 construct: purchased Invitrogen
Method: (§1) The inhibitory activity of the compounds on several kinases including BRAF, EGFR (ErbB1), EGFR (ErbB1) T790M L858R, FGFR2, KDR (VEGFR2), PDGFRA (PDGFR alpha), SRC and other was evaluated by Invitrogen using the Z′-LYTE® technology. Briefly, the Z′-LYTE® biochemical assay employs a fluorescence-based, coupled-enzyme format and is based on the differential sensitivity of phosphorylated and non-phosphorylated peptides to proteolytic cleavage. The peptide substrate is labeled with two fluorophores—one at each end—that make up a FRET pair. A ratiometric method, which calculates the ratio (the Emission Ratio) of donor emission to acceptor emission after excitation of the donor fluorophore at 400 nm, is used to quantitate reaction progress.
(§2) The compounds are screened in 1% DMSO (final) in the well. For 10 point titrations, 3-fold serial dilutions are conducted from the starting concentration. All Peptide/Kinase Mixtures are diluted to a 2× working concentration in the appropriate Kinase Buffer. All ATP Solutions are diluted to a 4× working concentration in Kinase Buffer (50 mM HEPES pH 7.5, 0.01% BRIJ-35, 10 mM MgCl2, 1 mM EGTA). ATP Km apparent is previously determined using a Z′-LYTE® assay.
(§3) Each compound was incubated at a concentration of 100 nM (excepted to test the activity against ABL and ABL T315I for which the compounds were incubated at a concentration of 10 μM) and the tables B1 to B12 summarize the results obtained showing the inhibitory power of a compound. The inhibitory activity of OR0512 was also investigated using the same assays and the kinases for which activity was inhibited at more than 50% at the concentration of 100 nM of OR0512 are listed in the table B13.

[2] = target: T2, ABL T315I (Homo sapiens, UniProt P00519, T315I); assay: In vitro kinase assay (Z′-LYTE); format: biochemical; details: read-out: % of inhibition of the kinase compared to the control
T2 construct: purchased Invitrogen
Method: as §1, §2, §3

[3] = target: T3, BRAF (Homo sapiens, UniProt P15056); assay: In vitro kinase assay (Z′-LYTE); format: biochemical; details: compound 100 nM; ATP 100 μM; read-out: % of inhibition of the kinase compared to the control
T3 construct: purchased Invitrogen
Method: as §1, §2, §3

[4] = target: T4, EGFR (ErbB1) (Homo sapiens, UniProt P00533); assay: In vitro kinase assay (Z′-LYTE); format: biochemical; details: read-out: % of inhibition of the kinase compared to the control
T4 construct: purchased Invitrogen
Method: as §1, §2, §3

[5] = target: T5, EGFR (ErbB1) T790M L858R (Homo sapiens, UniProt P00533, L858R/T790M); assay: In vitro kinase assay (Z′-LYTE); format: biochemical; details: read-out: % of inhibition of the kinase compared to the control
T5 construct: purchased Invitrogen
Method: as §1, §2, §3

[6] = target: T6, FGFR1 (Homo sapiens, UniProt P11362); assay: In vitro kinase assay (Z′-LYTE); format: biochemical; details: read-out: % of inhibition of the kinase compared to the control
T6 construct: purchased Invitrogen
Method: as §1, §2, §3

[7] = target: T7, FGFR2 (Homo sapiens, UniProt P21802); assay: In vitro kinase assay (Z′-LYTE); format: biochemical; details: read-out: % of inhibition of the kinase compared to the control
T7 construct: purchased Invitrogen
Method: as §1, §2, §3

[8] = target: T8, KDR (VEGFR2) (Homo sapiens, UniProt P35968); assay: In vitro kinase assay (Z′-LYTE); format: biochemical; details: read-out: % of inhibition of the kinase compared to the control
T8 construct: purchased Invitrogen
Method: as §1, §2, §3

[9] = target: T9, PDGFRA (PDGFR alpha) (Homo sapiens, UniProt P16234); assay: In vitro kinase assay (Z′-LYTE); format: biochemical; details: read-out: % of inhibition of the kinase compared to the control
T9 construct: purchased Invitrogen
Method: as §1, §2, §3

[10] = target: T10, PDGFRB (Homo sapiens, UniProt P09619); assay: In vitro kinase assay (Z′-LYTE); format: biochemical; details: read-out: % of inhibition of the kinase compared to the control
T10 construct: purchased Invitrogen
Method: as §1, §2, §3

[11] = target: T11, SRC (Homo sapiens, UniProt P12931); assay: In vitro kinase assay (Z′-LYTE); format: biochemical; details: read-out: % of inhibition of the kinase compared to the control
T11 construct: purchased Invitrogen
Method: as §1, §2, §3

[12] = target: T12, VEGFR1 (Homo sapiens, UniProt P17948); assay: In vitro kinase assay (Z′-LYTE); format: biochemical; details: read-out: % of inhibition of the kinase compared to the control
T12 construct: purchased Invitrogen
Method: as §1, §2, §3

[13] = tested on: A549; assay: In vitro cell proliferation assay (MTT); format: cell-based; details: Homo sapiens, A549, 72 h
Method: (§4) Cancer cell lines (5×10^3 cells per well) or HUVEC (1×10^4 cells per well) or HRMEC (1×10^4 cells per well) were distributed in 96-well plates and incubating in duplicate with escalating concentrations (10 nM to 3 μM) of compounds for 72 hr. Cell proliferation was measured using MTT (3 [4,5-dimethylthiazol-2-yl]-2,5-diphenyltetrazolium bromide).

[14] = tested on: BxPC-3; assay: In vitro cell proliferation assay (MTT); format: cell-based; details: Homo sapiens, BXPC-3, 72 h
Method: as §4

[15] = tested on: H1975; assay: In vitro cell proliferation assay (MTT); format: cell-based; details: Homo sapiens, NCI-H1975, 72 h
Method: as §4

[16] = tested on: HT29; assay: In vitro cell proliferation assay (MTT); format: cell-based; details: Homo sapiens, HT-29, 72 h
Method: as §4

[17] = tested on: HUVEC; assay: In vitro cell proliferation assay (MTT); format: cell-based; details: Homo sapiens, 72 h
Method: as §4

[18] = tested on: HepG2; assay: In vitro cell proliferation assay (MTT); format: cell-based; details: Homo sapiens, HepG2, 72 h
Method: as §4

[19] = tested on: HuH7; assay: In vitro cell proliferation assay (MTT); format: cell-based; details: Homo sapiens, Huh-7, 72 h
Method: as §4

T3 sequence (P15056 whole entry): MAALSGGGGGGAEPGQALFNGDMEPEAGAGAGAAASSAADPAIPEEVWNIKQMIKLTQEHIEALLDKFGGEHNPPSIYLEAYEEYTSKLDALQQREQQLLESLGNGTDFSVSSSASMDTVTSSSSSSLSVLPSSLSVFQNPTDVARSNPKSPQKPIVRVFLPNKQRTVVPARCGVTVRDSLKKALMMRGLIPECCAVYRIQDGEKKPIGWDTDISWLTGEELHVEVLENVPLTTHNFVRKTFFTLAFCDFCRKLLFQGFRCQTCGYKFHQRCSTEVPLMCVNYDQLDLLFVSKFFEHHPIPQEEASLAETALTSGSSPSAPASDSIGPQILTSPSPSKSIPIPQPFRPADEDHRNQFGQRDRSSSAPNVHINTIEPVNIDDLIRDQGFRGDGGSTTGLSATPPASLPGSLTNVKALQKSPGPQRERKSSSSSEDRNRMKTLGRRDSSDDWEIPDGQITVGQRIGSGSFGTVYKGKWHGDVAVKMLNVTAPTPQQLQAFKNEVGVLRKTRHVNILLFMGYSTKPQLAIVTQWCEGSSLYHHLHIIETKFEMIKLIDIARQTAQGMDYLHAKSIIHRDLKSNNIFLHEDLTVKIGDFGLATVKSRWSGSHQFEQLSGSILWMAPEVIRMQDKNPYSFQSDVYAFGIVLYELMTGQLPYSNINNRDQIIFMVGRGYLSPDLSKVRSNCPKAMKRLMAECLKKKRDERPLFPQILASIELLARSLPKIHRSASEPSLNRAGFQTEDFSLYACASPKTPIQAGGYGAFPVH
T7 sequence (P21802 22-821): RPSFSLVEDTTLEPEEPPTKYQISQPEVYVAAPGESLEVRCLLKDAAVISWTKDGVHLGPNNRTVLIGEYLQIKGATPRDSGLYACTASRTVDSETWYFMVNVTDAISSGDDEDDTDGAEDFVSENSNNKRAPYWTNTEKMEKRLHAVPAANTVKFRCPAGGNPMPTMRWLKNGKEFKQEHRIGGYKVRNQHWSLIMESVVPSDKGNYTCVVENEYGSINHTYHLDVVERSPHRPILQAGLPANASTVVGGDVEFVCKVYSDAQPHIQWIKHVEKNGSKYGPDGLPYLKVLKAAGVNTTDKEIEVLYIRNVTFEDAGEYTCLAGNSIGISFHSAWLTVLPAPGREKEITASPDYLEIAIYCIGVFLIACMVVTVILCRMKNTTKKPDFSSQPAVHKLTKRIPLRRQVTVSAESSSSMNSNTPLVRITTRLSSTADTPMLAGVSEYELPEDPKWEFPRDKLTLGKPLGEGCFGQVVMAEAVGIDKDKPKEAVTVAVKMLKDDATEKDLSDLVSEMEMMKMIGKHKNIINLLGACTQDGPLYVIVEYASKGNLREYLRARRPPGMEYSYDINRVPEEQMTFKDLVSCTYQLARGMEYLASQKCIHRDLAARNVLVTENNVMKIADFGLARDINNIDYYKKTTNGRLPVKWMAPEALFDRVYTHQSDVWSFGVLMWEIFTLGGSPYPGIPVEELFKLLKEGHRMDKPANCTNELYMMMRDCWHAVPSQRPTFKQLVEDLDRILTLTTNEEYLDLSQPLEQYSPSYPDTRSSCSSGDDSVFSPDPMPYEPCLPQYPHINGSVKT
T5 sequence (P00533 25-1210 T790M/L858R): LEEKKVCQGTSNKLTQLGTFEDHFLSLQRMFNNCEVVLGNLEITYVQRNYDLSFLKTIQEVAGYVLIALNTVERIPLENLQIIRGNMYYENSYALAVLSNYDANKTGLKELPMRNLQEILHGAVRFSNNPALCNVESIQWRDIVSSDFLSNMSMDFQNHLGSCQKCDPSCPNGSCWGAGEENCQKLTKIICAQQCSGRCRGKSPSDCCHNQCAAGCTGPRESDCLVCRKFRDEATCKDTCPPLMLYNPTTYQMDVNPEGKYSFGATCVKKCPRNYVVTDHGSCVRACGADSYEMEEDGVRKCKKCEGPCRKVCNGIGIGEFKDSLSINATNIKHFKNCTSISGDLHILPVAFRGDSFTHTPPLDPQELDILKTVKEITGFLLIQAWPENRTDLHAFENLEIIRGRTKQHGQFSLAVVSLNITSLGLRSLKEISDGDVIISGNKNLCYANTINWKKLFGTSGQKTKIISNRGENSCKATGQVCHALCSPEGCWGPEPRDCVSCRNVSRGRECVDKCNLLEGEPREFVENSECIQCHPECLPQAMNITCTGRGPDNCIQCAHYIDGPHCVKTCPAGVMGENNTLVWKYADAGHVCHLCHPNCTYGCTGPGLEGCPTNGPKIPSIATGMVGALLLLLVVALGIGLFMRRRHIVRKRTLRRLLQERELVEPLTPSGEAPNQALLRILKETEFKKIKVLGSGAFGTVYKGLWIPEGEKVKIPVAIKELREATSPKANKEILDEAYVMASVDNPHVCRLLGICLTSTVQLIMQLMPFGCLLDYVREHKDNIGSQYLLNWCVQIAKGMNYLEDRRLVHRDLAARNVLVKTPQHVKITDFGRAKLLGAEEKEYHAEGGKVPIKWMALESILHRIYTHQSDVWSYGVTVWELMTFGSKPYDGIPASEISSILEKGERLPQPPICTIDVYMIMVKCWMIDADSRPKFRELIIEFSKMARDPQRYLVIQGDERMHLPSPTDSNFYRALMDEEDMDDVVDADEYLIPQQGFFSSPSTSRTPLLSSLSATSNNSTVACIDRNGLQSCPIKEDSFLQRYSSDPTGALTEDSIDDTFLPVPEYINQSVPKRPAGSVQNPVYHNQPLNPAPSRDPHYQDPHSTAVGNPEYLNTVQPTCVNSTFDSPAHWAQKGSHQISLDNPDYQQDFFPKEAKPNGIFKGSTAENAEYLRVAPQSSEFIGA
T12 sequence (P17948 27-1338): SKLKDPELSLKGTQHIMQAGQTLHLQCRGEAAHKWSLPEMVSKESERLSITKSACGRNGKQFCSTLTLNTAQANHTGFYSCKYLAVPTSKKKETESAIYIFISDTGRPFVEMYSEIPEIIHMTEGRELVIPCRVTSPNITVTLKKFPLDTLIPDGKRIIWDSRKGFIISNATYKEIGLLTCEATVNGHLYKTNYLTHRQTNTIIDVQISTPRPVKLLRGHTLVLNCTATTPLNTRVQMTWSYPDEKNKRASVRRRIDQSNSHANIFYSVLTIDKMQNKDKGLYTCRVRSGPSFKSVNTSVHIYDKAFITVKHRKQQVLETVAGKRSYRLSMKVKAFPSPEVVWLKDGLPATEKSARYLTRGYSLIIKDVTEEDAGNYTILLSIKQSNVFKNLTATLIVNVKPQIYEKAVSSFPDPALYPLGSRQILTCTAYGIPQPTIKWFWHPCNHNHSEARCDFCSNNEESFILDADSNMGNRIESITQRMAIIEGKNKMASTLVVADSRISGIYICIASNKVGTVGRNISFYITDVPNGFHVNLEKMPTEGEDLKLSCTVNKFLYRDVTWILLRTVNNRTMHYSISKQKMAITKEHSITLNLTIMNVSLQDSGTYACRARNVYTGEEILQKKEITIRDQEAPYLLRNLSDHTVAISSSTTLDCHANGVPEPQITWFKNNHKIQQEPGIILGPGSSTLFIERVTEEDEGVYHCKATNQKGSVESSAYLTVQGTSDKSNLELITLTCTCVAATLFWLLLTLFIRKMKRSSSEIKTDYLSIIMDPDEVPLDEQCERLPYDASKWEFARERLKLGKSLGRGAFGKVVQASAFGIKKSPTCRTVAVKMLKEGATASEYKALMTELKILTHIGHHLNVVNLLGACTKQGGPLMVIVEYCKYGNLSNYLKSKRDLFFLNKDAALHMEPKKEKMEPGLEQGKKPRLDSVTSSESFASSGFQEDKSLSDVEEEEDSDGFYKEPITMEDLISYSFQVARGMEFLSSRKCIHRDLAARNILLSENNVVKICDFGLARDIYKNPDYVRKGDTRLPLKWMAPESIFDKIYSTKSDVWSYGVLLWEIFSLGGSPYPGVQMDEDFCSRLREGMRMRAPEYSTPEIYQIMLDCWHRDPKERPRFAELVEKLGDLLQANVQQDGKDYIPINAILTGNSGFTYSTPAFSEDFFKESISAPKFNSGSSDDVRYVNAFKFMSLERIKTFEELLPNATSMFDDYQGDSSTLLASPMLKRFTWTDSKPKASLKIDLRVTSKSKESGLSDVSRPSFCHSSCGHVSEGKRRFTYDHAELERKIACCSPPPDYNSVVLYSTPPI
T11 sequence (P12931 whole entry): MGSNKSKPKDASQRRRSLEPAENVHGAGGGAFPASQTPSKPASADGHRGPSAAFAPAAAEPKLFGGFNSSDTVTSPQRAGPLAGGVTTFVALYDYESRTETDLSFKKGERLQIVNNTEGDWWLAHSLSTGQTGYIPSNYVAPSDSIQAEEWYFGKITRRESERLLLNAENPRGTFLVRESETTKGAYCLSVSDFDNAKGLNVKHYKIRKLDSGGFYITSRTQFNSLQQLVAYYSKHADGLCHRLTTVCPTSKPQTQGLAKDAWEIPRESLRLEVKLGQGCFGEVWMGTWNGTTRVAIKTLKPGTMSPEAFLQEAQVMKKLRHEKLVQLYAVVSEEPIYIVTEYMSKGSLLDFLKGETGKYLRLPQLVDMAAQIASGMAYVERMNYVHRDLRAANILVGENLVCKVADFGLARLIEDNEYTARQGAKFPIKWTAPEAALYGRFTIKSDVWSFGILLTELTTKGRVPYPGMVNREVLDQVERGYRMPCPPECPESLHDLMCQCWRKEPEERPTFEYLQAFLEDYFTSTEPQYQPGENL

Structure (SMILES)	inhibition at 10 µM [1] [%]	inhibition at 10 µM [2] [%]	inhibition at 0.1 µM [3] [%]	inhibition at 0.1 µM [4] [%]	inhibition at 0.1 µM [5] [%]	inhibition at 0.1 µM [6] [%]	inhibition at 0.1 µM [7] [%]	inhibition at 0.1 µM [8] [%]	inhibition at 0.1 µM [9] [%]	inhibition at 0.1 µM [10] [%]	inhibition at 0.1 µM [11] [%]	inhibition at 0.1 µM [12] [%]	EC50 [13] [nM]	EC50 [14] [nM]	EC50 [15] [nM]	EC50 [16] [nM]	EC50 [18] [nM]	EC50 [19] [nM]	EC50 [17] [nM]
COC(=O)c1cc2cc(NCc3cc(NC(=O)c4ccc(CNCCN5CCN(C)CC5)c(C(F)(F)F)c4)ccc3C)cnc2[nH]1 [OR0637]	≥ 50	≥ 50	≥ 50	≥ 50	≥ 50	< 50	< 50	≥ 50	≥ 50	≥ 50	≥ 50	< 50	100 to 1000	≥ 1000	≥ 1000	100 to 1000	100 to 1000	–	100 to 1000
COC(=O)c1cc2cc(NCc3cc(NC(=O)Cc4cccc(C(F)(F)F)c4)ccc3C)cnc2[nH]1 [OR0601]	≥ 50	< 50	≥ 50	< 50	< 50	< 50	< 50	< 50	≥ 50	< 50	≥ 50	< 50	100 to 1000	≥ 1000	≥ 1000	100 to 1000	≤ 100	–	≤ 100
COC(=O)c1cc2cc(NCc3ccc(C)c(NC(=O)c4ccc(CN5CCN(C)CC5)c(C(F)(F)F)c4)c3)cnc2[nH]1 [OR0622]	≥ 50	≥ 50	< 50	< 50	< 50	≥ 50	≥ 50	≥ 50	≥ 50	< 50	≥ 50	< 50	≥ 1000	≥ 1000	≥ 1000	≥ 1000	≥ 1000	–	100 to 1000
COC(=O)c1cc2cc(NCc3cc(NC(=O)C4CCC(C(F)(F)F)CC4)ccc3C)cnc2[nH]1 (stereo not drawn) [OR0612]	≥ 50	< 50	< 50	< 50	< 50	< 50	< 50	< 50	≥ 50	< 50	≥ 50	< 50	100 to 1000	100 to 1000	≥ 1000	≥ 1000	100 to 1000	–	100 to 1000
COC(=O)c1cc2cc(NCc3cc(NC(=O)c4ccc(CN5CCN(C)CC5)c(C(F)(F)F)c4)ccc3F)cnc2[nH]1 [OR0816]	–	–	< 50	≥ 50	–	–	≥ 50	≥ 50	≥ 50	–	≥ 50	–	–	–	–	–	100 to 1000	100 to 1000	≤ 100
COC(=O)c1cc2cc(NCc3cc(NC(=O)c4cncc(C)c4)ccc3C)cnc2[nH]1 [OR0867]	–	–	≥ 50	≥ 50	–	–	< 50	≥ 50	–	–	–	–	–	–	–	–	100 to 1000	≥ 1000	≥ 1000
COC(=O)c1cc2cc(NCc3cc(NC(=O)c4ccc(CN5CCOCC5)c(C(F)(F)F)c4)ccc3C)cnc2[nH]1 [OR0598]	≥ 50	≥ 50	< 50	≥ 50	< 50	< 50	< 50	< 50	≥ 50	< 50	≥ 50	< 50	100 to 1000	100 to 1000	100 to 1000	100 to 1000	100 to 1000	–	≤ 100
COC(=O)c1cc2cc(NCc3cc(NS(=O)(=O)c4cccc(C(F)(F)F)c4)ccc3C)cnc2[nH]1 [OR0882]	–	–	< 50	< 50	–	–	< 50	< 50	< 50	–	–	–	–	–	–	–	≥ 1000	≥ 1000	≥ 1000

Now from value to compound, other results behind:

inhibition at 10 µM [1] [%]	inhibition at 10 µM [2] [%]	inhibition at 0.1 µM [3] [%]	inhibition at 0.1 µM [4] [%]	inhibition at 0.1 µM [5] [%]	inhibition at 0.1 µM [6] [%]	inhibition at 0.1 µM [7] [%]	inhibition at 0.1 µM [8] [%]	inhibition at 0.1 µM [9] [%]	inhibition at 0.1 µM [10] [%]	inhibition at 0.1 µM [11] [%]	inhibition at 0.1 µM [12] [%]	EC50 [13] [nM]	EC50 [14] [nM]	EC50 [15] [nM]	EC50 [16] [nM]	EC50 [18] [nM]	EC50 [19] [nM]	Structure (SMILES)	EC50 [17] [nM]
–	–	< 50	< 50	–	–	< 50	< 50	< 50	–	–	–	–	–	–	–	100 to 1000	≥ 1000	COC(=O)c1cc2cc(NCc3cc(NC(=O)c4ccnc(C(F)(F)F)c4)ccc3C)cnc2[nH]1 [OR0866]	100 to 1000
–	–	< 50	≥ 50	–	–	< 50	< 50	< 50	–	≥ 50	–	–	–	–	–	≥ 1000	100 to 1000	COC(=O)c1cc2cc(NCc3cc(NC(=O)c4ccc(C)c(C(F)(F)F)c4)ccc3C)cnc2[nH]1 [OR0869]	100 to 1000
–	–	≥ 50	< 50	–	–	< 50	< 50	–	–	–	–	–	–	–	–	≥ 1000	≥ 1000	COC(=O)c1cc2cc(NCc3cc(NC(=O)c4ccnc(C)c4)ccc3C)cnc2[nH]1 [OR0868]	100 to 1000
–	–	< 50	≥ 50	–	–	< 50	< 50	≥ 50	–	≥ 50	–	–	–	–	–	100 to 1000	100 to 1000	COC(=O)c1cc2cc(NCc3cc(NC(=O)c4ccc(Cl)c(C(F)(F)F)c4)ccc3C)cnc2[nH]1 [OR0871]	100 to 1000
≥ 50	< 50	≥ 50	< 50	< 50	< 50	< 50	≥ 50	≥ 50	< 50	≥ 50	< 50	100 to 1000	100 to 1000	≥ 1000	≥ 1000	100 to 1000	–	COC(=O)c1cc2cc(NCc3cc(NC(=O)c4cccc(Br)c4)ccc3C)cnc2[nH]1 [OR0608]	100 to 1000
–	–	≥ 50	≥ 50	–	–	< 50	< 50	–	–	–	–	–	–	–	–	100 to 1000	≥ 1000	COC(=O)c1cc2cc(NCc3cc(NC(=O)c4ccc(C(F)(F)F)nc4)ccc3C)cnc2[nH]1 [OR0865]	100 to 1000
≥ 50	< 50	< 50	≥ 50	< 50	< 50	< 50	< 50	≥ 50	< 50	≥ 50	< 50	–	≥ 1000	–	–	–	100 to 1000	COC(=O)c1cc2cc(NCc3cc(NC(=O)c4ccc(O)c(C(F)(F)F)c4)ccc3C)cnc2[nH]1 [OR0605]	–
